Results as given in US11925634B2, “Use of koumine in preparation of medicament for treatment of inflammatory bowel disease” (Fujian Medical University, priority 2019, dated 2024).

Legend:
[1] = system: myeloperoxidase (MPO); assay: Immunohistochemical detection of MPO expression in colonic tissue, OXA model; type: in vivo, BALB/c mice
Experimental: (§1) […]

[2] = system: myeloperoxidase (MPO); assay: Immunohistochemical detection of MPO expression in colonic tissue, DSS model; type: in vivo, C57BL/6 mice
Experimental: (§2) 1.2. Medicaments and Reagents Koumine hydrochloride (C20H22N2O·HCl) (in the form of a powder) was prepared in the School of Pharmacy, Fujian Medical University (Batch No. KM201610, with a purity of 99.99% as determined by high performance liquid chromatography), stored at 4° C. in the dark, and dissolved in normal saline to a desired concentration before use. DSS was purchased from MP Biomedicals, USA and fully dissolved in distilled water to a desired concentration before use. Mesalazine enteric coated tablets were purchased from Heilongjiang Tianhong Pharmaceutical Co., Ltd. A citrate (pH=6.0) antigen retrieval solution, BSA, an anti-myeloperoxidase primary antibody, an HRP-conjugated goat anti-rabbit secondary antibody and a histochemistry kit for DAB staining were purchased from Wuhan Servicebio Technology Co., Ltd. (the same applies below).
(§3) Fifty-one healthy SPF C57BL/6 mice were randomly assigned into a blank control group (n=6), a model group (n=9) and 4 treatment groups (n=9 for each) respectively administered with low (0.67 mg/kg), medium (2 mg/kg) and high (6 mg/kg) doses of koumine, as well as mesalazine (100 mg/kg) as a positive control. A mouse model of DSS-induced bowel inflammation was established by allowing the mice in the model group and the individual treatment groups to have free access to a 2.5% DSS solution in water for 8 days and providing ad libitum access to normal water to the mice in the blank control group. From the day of induction (D0), the mice in the treatment groups received intragastric administration (0.1 mL/10 g) once a day for 9 consecutive days (D0-D8), while those in the control and model groups were given the same volumes of normal saline also by intragastric administration throughout the same period. Body weight measurements were taken and fecal occult blood tests were performed daily. One hour after the last administration (D8), the mice were sacrificed by cervical dislocation under anesthesia. Immediately after that, a bowel segment from the terminal ileum to the anus was removed from each mouse, and a length from the ileocolonic junction to the anus was measured and recorded. Colonic tissue was taken 1 cm away from the anus for histopathological examination, as well as for immunohistochemical detection for the expression of MPO. Additionally, colonic tissue was taken 1-2 cm away from the anus for MPO activity determination.

[3] = system: mice with OXA-induced colitis; assay: OXA-induced colitis in BALB/c mice (body weight, colon length, histomorphology); type: in vivo
From the text: OXA-induced colitis causes lesions primarily in the distal colon and resembles human IBD in terms of histological characteristics and distribution of inflammation, which can be manifested as a decrease in goblet cells.
Six to eight week old healthy male SPF BALB/c mice were purchased from Shanghai SLAC Laboratory Animal Co., Ltd. (License No. SOCK (Shanghai) 2017-0005).
The same koumine hydrochloride and mesalazine as in Example 1 were used. OXA was purchased from Sigma, USA and prepared in the form of a solution before use by fully dissolving it in absolute ethanol preheated to 35° C. When used for an enema, the solution was diluted 1-fold with normal saline to a desired concentration. Absolute ethanol was purchased from Merck, Germany. All the other reagents were the same as in Example 1.
Seventy-four BALB/c mice were randomly assigned into a blank control group (n=6), a vehicle control group (n=10), a model group (n=19) and low-dose (n=10), medium-dose (n=9) and high-dose (n=12) koumine treatment groups and another treatment group (n=8) administered with mesalazine as a positive control. A mouse model of OXA-induced UC was established by sensitizing and then giving enemas to the mice in the model group and the individual treatment groups. Specifically, each of the mice was anesthetized and sensitized by drop-wise applying a 3% solution (150 μL) of OXA in absolute ethanol to a shaved abdominal area (about 1.5 cm×1.5 cm), and received an enema using a 1% solution of OXA in 50% ethanol (100 μL) five days following the sensitization (D0). The mice in the vehicle and blank control groups were treated similarly, except for drop-wise application of 150 μL absolute ethanol and normal saline in the sensitization phase, respectively, and use of 100 μL of 50% ethanol and the same volume of normal saline in the enema phase, respectively. From the day of enema administration (D0), the mice in the treatment groups received intragastric administration (0.1 mL/10 g) once a day for 4 consecutive days (D0-D3). The daily dosage of koumine and the positive control mesalazine to the treatment groups was the same as in Example 1, and the vehicle control group was given the same volumes of 50% ethanol. Bowel inflammation evaluation of the animals was conducted in the same manner using the same indicators as in Example 1.

[4] = system: myeloperoxidase (MPO); assay: MPO activity assay in colonic tissue homogenates, OXA model; type: in vivo, BALB/c mice; settings: p<0.01, p<0.001 vs model, FIG. 10
Experimental: as §1

[5] = system: mice with DSS-induced bowel inflammation; assay: DSS-induced bowel inflammation in C57BL/6 mice (body weight, defecation, colon length, histopathology); type: in vivo; settings: for histopathological scoring: p<0.01 vs model, FIG. 4
Experimental: Dextran sulfate sodium (DSS) has an anticoagulant effect and, when orally administered to experimental animals, can cause hyperemia, ulcers, submucosal edema in bowel tissue and other pathological manifestations closely similar to those of clinical IBD patients. Models of DSS-induced bowel inflammation can be taken as basic models for studying the pathogenesis of UC and even IBD and evaluating the efficacy of therapeutic medicaments. In this example, therapeutic effects of koumine were evaluated in a C57BL/6 mouse model of DSS-induced bowel inflammation with the animals' body weight, defecation, pathological manifestations of colonic tissue, expression of MPO in colonic tissue and the like as indicators.
1.1. Experimental Animals Six to eight week old healthy male SPF C57BL/6 mice (weighing 18-22 g) were purchased from Shanghai SLAC Laboratory Animal Co., Ltd. (License No. SOCK (Shanghai) 2017-0005). Prior to study start, the mice were acclimated for 7 days until their body weights reached 20±2 g. They were bred under conditions of a 12/12-h light-dark cycle (light on 8:00-20:00), constant temperature (20-26° C.) and constant humidity (40-70%), with food and water provided ad libitum. Experimental operations were conducted in accordance with regulations of international and local committees on care and use of laboratory animals (the same applies below).
as §2, §3

[6] = mesalazine 100 mg/kg intragastric

For `C=CC12CN(C)C3CC14C(=Nc1ccccc14)C1CC2C3CO1` (centres unmarked) [koumine], the “expression of MPO in colonic tissue” value ([1]; koumine at the different doses (0.67, 2, 6 mg/kg) intragastric, FIG. 9 C-E) was “suppressed expression of MPO to varying extents”, the “expression of MPO in colonic tissue” value ([2]; high dose 6 mg/kg intragastric, FIG. 5 E) was “lowered the expression of MPO to different extents” and the “expression of MPO in colonic tissue” value ([2]; low dose 0.67 mg/kg intragastric, FIG. 5 C) was “did not lead to any noticeable decrease in the expression of MPO”. The “expression of MPO in colonic tissue” value ([2]; medium dose 2 mg/kg intragastric, FIG. 5 D) was “lowered the expression of MPO to different extents”, the “gross manifestations of colonic tissue (hyperemia, redness and swelling)” value (“gross manifestations of colonic tissue” for short) ([3]; high dose 6 mg/kg intragastric) was “remarkable relief of most manifestations of colonic tissue” and the “microscopic manifestations of HE-stained colonic tissue” value (shortened to “microscopic manifestations”) ([3]; high dose 6 mg/kg intragastric, FIG. 8 E) was “infiltration of only a small number of inflammatory cells”. The body weight loss ([3]; koumine 0.67, 2, 6 mg/kg intragastric once a day D0-D3, FIG. 6) was “alleviate body weight loss of mice with colitis in a dose-dependent manner”, the “positive effect on colon length” value ([3]; koumine 0.67, 2, 6 mg/kg intragastric, FIG. 7) was “dose-dependent” and the “gross manifestations of colonic tissue” value ([3]; low dose 0.67 mg/kg intragastric) was “appeared to not mitigate the manifestations”. For the same molecule, the “microscopic manifestations” value ([3]; low dose 0.67 mg/kg intragastric, FIG. 8 C) was “slightly milder symptoms than the symptoms of the model group”, the colon shortening ([3]; low dose 0.67 mg/kg intragastric, p<0.01 vs model, FIG. 7) was “significantly reduce their colon shortening” and the “gross manifestations of colonic tissue” value ([3]; medium dose 2 mg/kg intragastric) was “not seen with severe redness and swelling, hyperemia or other inflammatory manifestations”. For the same molecule, the “microscopic manifestations” value ([3]; medium dose 2 mg/kg intragastric, FIG. 8 D) was “infiltration of only a small number of inflammatory cells”, the “enzymatic activity of MPO in colonic tissue” value ([4]; koumine at the different doses (0.67, 2, 6 mg/kg) intragastric) was “significantly reduced enzymatic activity per unit weight” and the defecation and hematochezia ([5]; high dose 6 mg/kg intragastric once a day) was “fewer times of defecation and mitigated hematochezia”. The “gross damage and hyperemia of bowel mucosa” value ([5]; koumine 0.67, 2, 6 mg/kg intragastric once a day) was “ameliorate damage, hyperemia and the like”, the “symptom of weight loss” value ([5]; koumine 0.67, 2, 6 mg/kg intragastric once a day D0-D8, FIG. 1) was “alleviate the symptom of weight loss” and the colon shortening ([5]; koumine 0.67, 2, 6 mg/kg intragastric once a day, FIG. 2) was “dose-dependently reduce colon shortening”. For the same molecule, the “microscopic manifestations” value ([5]; koumine 0.67, 2, 6 mg/kg intragastric, FIG. 3 C-E) was “reduced inflammatory cell infiltration”, the histopathological scoring ([5]; koumine high dose 6 mg/kg intragastric) was “significantly inhibit increases in the sore of the model group” and the “average body weight vs model group” value ([5]; low dose 0.67 mg/kg intragastric once a day, as early as D6 (seventh day of administration), p<0.05, FIG. 1) was “significantly higher than that of those in the model group”. For the same molecule, the “colon length vs model group” value ([5]; low dose 0.67 mg/kg intragastric, eighth day of administration, p<0.05, FIG. 2) was “significantly greater than that of the model group”, the defecation and hematochezia ([5]; medium dose 2 mg/kg intragastric once a day) was “fewer times of defecation and mitigated hematochezia” and the “average body weight vs model group” value ([5]; medium dose 2 mg/kg intragastric once a day, from D5 (sixth day of administration), p<0.05 and p<0.01, FIG. 1) was “significantly higher than that of those in the model group”.

`Nc1ccc(O)c(C(=O)O)c1` [mesalazine, reference compound] was tested, and the “expression of MPO in colonic tissue” value ([1]; mesalazine 100 mg/kg intragastric, FIG. 9 F) was “suppressed expression of MPO to varying extents”, the “expression of MPO in colonic tissue” value ([2]; mesalazine 100 mg/kg intragastric, FIG. 5 F) was “lowered the expression of MPO to different extents” and the “effect of alleviating body weight loss” value ([3]; mesalazine 100 mg/kg intragastric once a day D0-D3, FIG. 6) was “comparable to that of the medium dose of koumine”. For the same molecule, the “positive effect on colon length” value ([3]; mesalazine 100 mg/kg intragastric, FIG. 7) was “comparable to that of koumine at 6 mg/kg”, the “microscopic manifestations” value ([3]; mesalazine 100 mg/kg intragastric, FIG. 8 F) was “infiltration of only a small number of inflammatory cells” and the “enzymatic activity of MPO in colonic tissue” value [4, 6] was “significantly reduced enzymatic activity per unit weight”. For the same molecule, the “microscopic manifestations” value ([5]; mesalazine 100 mg/kg intragastric, FIG. 3 F) was “obvious improvements over the model group mice” and the histopathological scoring [5, 6] was “significantly inhibit increases in the sore of the model group”.
